According to the supplement of paper PMC8617591:

Legend:
[1] = tested on: Mycobacterium tuberculosis Erdman (autoluminescent); assay: GRinf, maximum normalised growth rate inhibition (three-drug combination) (unitless (-1 to 1)); higher = less effect (negative = killing)
Method: (§1)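 DiaMOND equipotent three-drug combination dose responses (10 doses, 1.5- or 2-fold spacing, centred on IC90) against autoluminescent M. tuberculosis Erdman in 8 in vitro models. Read-out is OD600, or luminescence for the intracellular and dormancy models, normalised to untreated wells. Hill-fit Einf, AUC25 and GRinf are potency metrics; FIC50 and FIC90 are total Loewe fractional inhibitory concentrations as log2 (negative = synergy).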

[2] = tested on: Mycobacterium tuberculosis Erdman (autoluminescent); assay: total FIC50 (Loewe) at 50% inhibition, three-drug combination (log2); higher = more antagonistic
Method: as §1

[3] = tested on: Mycobacterium tuberculosis Erdman (autoluminescent); assay: Einf, fitted maximum growth inhibition of three-drug combination (fraction); higher = stronger maximal inhibition
Method: as §1

[4] = tested on: Mycobacterium tuberculosis Erdman (autoluminescent); assay: AUC25, normalised area under dose response up to IC25 (three-drug combination) (fraction (0-1)); higher = more potent at low dose
Method: as §1

[5] = tested on: Mycobacterium tuberculosis Erdman (autoluminescent); assay: total FIC90 (Loewe) at 90% inhibition, three-drug combination (log2); higher = more antagonistic
Method: as §1

COc1nc2ccc(Br)cc2cc1[C@@H](c1ccccc1)[C@@](O)(CCN(C)C)c1cccc2ccccc12 [bedaquiline] + NNC(=O)c1ccncc1 [isoniazid] + CC(=O)NC[C@H]1CN(c2ccc(N3CCOCC3)c(F)c2)C(=O)O1 [linezolid]
Conditions	AUC25, [4]	Einf, [3]	GRinf, [1]	total FIC50, [2]	total FIC90, [5]
in vitro model: acidic pH 5.7, time point: constant (~7 days, model-specific)	0.106	0.912	-0.504	0.42	–
in vitro model: acidic pH 5.7, time point: terminal (~4-5 doublings, model-specific)	0.099	0.977	-0.207	0.426	0.522
in vitro model: intracellular J774, time point: constant = terminal	–	0.898	-0.0256	–	0.82

Conditions	AUC25, [4]	Einf, [3]	GRinf, [1]	total FIC50, [2]	total FIC90, [5]
in vitro model: butyrate, time point: constant (~7 days, model-specific)	0.0832	0.917	-0.00837	0.739	1.08
in vitro model: butyrate, time point: terminal (~4-5 doublings, model-specific)	0.0647	0.962	-0.0285	0.794	0.944
in vitro model: cholesterol 0.05 mM, time point: constant (~7 days, model-specific)	0.139	0.735	-0.291	0.27	–
in vitro model: cholesterol 0.05 mM, time point: terminal (~4-5 doublings, model-specific)	0.147	0.945	-0.463	4.34	0.413
in vitro model: cholesterol-high 0.2 mM, time point: constant (~7 days, model-specific)	0.114	0.955	-0.63	0.506	1.92
in vitro model: cholesterol-high 0.2 mM, time point: terminal (~4-5 doublings, model-specific)	0.0961	1	-0.702	0.549	0.793
in vitro model: dormancy (butyrate + nitrate, low O2), time point: constant (~7 days, model-specific)	0.0688	0.93	0.215	0.921	0.532
in vitro model: dormancy (butyrate + nitrate, low O2), time point: terminal (~4-5 doublings, model-specific)	0.0346	0.989	-0.127	0.777	0.255
in vitro model: standard 7H9 glycerol, time point: constant = terminal	0.0715	0.957	-0.0711	0.0514	-0.28
in vitro model: valerate, time point: constant (~7 days, model-specific)	0.107	0.928	-0.345	0.58	0.911
in vitro model: valerate, time point: terminal (~4-5 doublings, model-specific)	0.0588	0.959	-0.111	0.894	0.84

COc1nc2ccc(Br)cc2cc1[C@@H](c1ccccc1)[C@@](O)(CCN(C)C)c1cccc2ccccc12 [bedaquiline] + CC(=O)NC[C@H]1CN(c2ccc(N3CCOCC3)c(F)c2)C(=O)O1 [linezolid] + O=[N+]([O-])c1cn2c(n1)OC[C@@H](OCc1ccc(OC(F)(F)F)cc1)C2 [pretomanid]
Conditions	AUC25, [4]	Einf, [3]	GRinf, [1]	total FIC50, [2]	total FIC90, [5]
in vitro model: acidic pH 5.7, time point: constant (~7 days, model-specific)	0.118	0.937	-0.508	0.414	–
in vitro model: acidic pH 5.7, time point: terminal (~4-5 doublings, model-specific)	0.0812	0.992	-0.56	0.58	0.474
in vitro model: intracellular J774, time point: constant = terminal	–	0.99	-0.78	–	1.25

Conditions	AUC25, [4]	Einf, [3]	GRinf, [1]	total FIC50, [2]	total FIC90, [5]
in vitro model: butyrate, time point: constant (~7 days, model-specific)	0.105	0.943	-0.119	0.731	1.49
in vitro model: butyrate, time point: terminal (~4-5 doublings, model-specific)	0.0754	0.97	-0.0976	0.645	0.887
in vitro model: cholesterol 0.05 mM, time point: constant (~7 days, model-specific)	0.136	0.738	-0.284	0.169	–
in vitro model: cholesterol 0.05 mM, time point: terminal (~4-5 doublings, model-specific)	0.141	0.962	-0.303	0.274	0.577
in vitro model: cholesterol-high 0.2 mM, time point: constant (~7 days, model-specific)	0.112	0.948	-0.376	0.197	–
in vitro model: cholesterol-high 0.2 mM, time point: terminal (~4-5 doublings, model-specific)	0.115	1	-0.834	-0.088	0.591
in vitro model: dormancy (butyrate + nitrate, low O2), time point: constant (~7 days, model-specific)	0.0459	0.92	0.23	-0.22	-0.616
in vitro model: dormancy (butyrate + nitrate, low O2), time point: terminal (~4-5 doublings, model-specific)	0.0294	0.988	-0.115	-0.261	-1.1
in vitro model: standard 7H9 glycerol, time point: constant = terminal	0.0809	0.955	-0.108	0.296	0.191
in vitro model: valerate, time point: constant (~7 days, model-specific)	0.139	0.929	-0.172	0.447	1.63
in vitro model: valerate, time point: terminal (~4-5 doublings, model-specific)	0.115	0.958	-0.132	0.00392	1.32

COc1c(N2C[C@@H]3CCCN[C@@H]3C2)c(F)cc2c(=O)c(C(=O)O)cn(C3CC3)c12 [moxifloxacin] + O=[N+]([O-])c1cn2c(n1)OC[C@@H](OCc1ccc(OC(F)(F)F)cc1)C2 [pretomanid] + NC(=O)c1cnccn1 [pyrazinamide]
Conditions	AUC25, [4]	Einf, [3]	GRinf, [1]	total FIC50, [2]	total FIC90, [5]
in vitro model: acidic pH 5.7, time point: constant (~7 days, model-specific)	0.0694	0.831	-0.227	-0.148	–
in vitro model: acidic pH 5.7, time point: terminal (~4-5 doublings, model-specific)	0.0654	0.956	-0.278	0.329	-0.227
in vitro model: intracellular J774, time point: constant = terminal	–	0.967	-0.384	–	0.419

Conditions	AUC25, [4]	Einf, [3]	GRinf, [1]	total FIC50, [2]	total FIC90, [5]
in vitro model: butyrate, time point: constant (~7 days, model-specific)	0.111	0.909	0.0413	0.152	1.77
in vitro model: butyrate, time point: terminal (~4-5 doublings, model-specific)	0.0867	0.967	-0.0495	0.235	0.86
in vitro model: cholesterol 0.05 mM, time point: constant (~7 days, model-specific)	0.128	0.753	-0.295	–	–
in vitro model: cholesterol 0.05 mM, time point: terminal (~4-5 doublings, model-specific)	0.102	0.926	-0.334	1.11	–
in vitro model: cholesterol-high 0.2 mM, time point: constant (~7 days, model-specific)	0.0858	0.914	-0.29	0.415	–
in vitro model: cholesterol-high 0.2 mM, time point: terminal (~4-5 doublings, model-specific)	0.0802	1	-0.594	0.654	0.481
in vitro model: dormancy (butyrate + nitrate, low O2), time point: constant (~7 days, model-specific)	0.0852	0.871	0.199	0.104	-0.0729
in vitro model: dormancy (butyrate + nitrate, low O2), time point: terminal (~4-5 doublings, model-specific)	0.0687	0.982	-0.232	0.195	0.876
in vitro model: standard 7H9 glycerol, time point: constant = terminal	0.071	0.972	-0.151	–	–
in vitro model: valerate, time point: constant (~7 days, model-specific)	0.0976	0.89	0.0242	-0.452	–
in vitro model: valerate, time point: terminal (~4-5 doublings, model-specific)	0.0676	0.945	0.00495	0.11	-0.163
